The values below come from patent US20240398784A1, “C-LINKED ISOQUINOLINE AMIDES AS LRRK2 INHIBITORS, PHARMACEUTICAL COMPOSITIONS, AND USES THEREOF” (Merck Sharp & Dohme LLC, priority 2021, published 2024).

For this assay, the target named is LRRK2 G2019S (Homo sapiens, UniProt Q5S007, G2019S). Put plainly: LRRK2 G2019S Km ATP LanthaScreen assay. The format is biochemical. The settings on record: read-out: LRRK2 pIC50 (converted).
LRRK2 G2019S, sequence (Q5S007 whole entry G2019S): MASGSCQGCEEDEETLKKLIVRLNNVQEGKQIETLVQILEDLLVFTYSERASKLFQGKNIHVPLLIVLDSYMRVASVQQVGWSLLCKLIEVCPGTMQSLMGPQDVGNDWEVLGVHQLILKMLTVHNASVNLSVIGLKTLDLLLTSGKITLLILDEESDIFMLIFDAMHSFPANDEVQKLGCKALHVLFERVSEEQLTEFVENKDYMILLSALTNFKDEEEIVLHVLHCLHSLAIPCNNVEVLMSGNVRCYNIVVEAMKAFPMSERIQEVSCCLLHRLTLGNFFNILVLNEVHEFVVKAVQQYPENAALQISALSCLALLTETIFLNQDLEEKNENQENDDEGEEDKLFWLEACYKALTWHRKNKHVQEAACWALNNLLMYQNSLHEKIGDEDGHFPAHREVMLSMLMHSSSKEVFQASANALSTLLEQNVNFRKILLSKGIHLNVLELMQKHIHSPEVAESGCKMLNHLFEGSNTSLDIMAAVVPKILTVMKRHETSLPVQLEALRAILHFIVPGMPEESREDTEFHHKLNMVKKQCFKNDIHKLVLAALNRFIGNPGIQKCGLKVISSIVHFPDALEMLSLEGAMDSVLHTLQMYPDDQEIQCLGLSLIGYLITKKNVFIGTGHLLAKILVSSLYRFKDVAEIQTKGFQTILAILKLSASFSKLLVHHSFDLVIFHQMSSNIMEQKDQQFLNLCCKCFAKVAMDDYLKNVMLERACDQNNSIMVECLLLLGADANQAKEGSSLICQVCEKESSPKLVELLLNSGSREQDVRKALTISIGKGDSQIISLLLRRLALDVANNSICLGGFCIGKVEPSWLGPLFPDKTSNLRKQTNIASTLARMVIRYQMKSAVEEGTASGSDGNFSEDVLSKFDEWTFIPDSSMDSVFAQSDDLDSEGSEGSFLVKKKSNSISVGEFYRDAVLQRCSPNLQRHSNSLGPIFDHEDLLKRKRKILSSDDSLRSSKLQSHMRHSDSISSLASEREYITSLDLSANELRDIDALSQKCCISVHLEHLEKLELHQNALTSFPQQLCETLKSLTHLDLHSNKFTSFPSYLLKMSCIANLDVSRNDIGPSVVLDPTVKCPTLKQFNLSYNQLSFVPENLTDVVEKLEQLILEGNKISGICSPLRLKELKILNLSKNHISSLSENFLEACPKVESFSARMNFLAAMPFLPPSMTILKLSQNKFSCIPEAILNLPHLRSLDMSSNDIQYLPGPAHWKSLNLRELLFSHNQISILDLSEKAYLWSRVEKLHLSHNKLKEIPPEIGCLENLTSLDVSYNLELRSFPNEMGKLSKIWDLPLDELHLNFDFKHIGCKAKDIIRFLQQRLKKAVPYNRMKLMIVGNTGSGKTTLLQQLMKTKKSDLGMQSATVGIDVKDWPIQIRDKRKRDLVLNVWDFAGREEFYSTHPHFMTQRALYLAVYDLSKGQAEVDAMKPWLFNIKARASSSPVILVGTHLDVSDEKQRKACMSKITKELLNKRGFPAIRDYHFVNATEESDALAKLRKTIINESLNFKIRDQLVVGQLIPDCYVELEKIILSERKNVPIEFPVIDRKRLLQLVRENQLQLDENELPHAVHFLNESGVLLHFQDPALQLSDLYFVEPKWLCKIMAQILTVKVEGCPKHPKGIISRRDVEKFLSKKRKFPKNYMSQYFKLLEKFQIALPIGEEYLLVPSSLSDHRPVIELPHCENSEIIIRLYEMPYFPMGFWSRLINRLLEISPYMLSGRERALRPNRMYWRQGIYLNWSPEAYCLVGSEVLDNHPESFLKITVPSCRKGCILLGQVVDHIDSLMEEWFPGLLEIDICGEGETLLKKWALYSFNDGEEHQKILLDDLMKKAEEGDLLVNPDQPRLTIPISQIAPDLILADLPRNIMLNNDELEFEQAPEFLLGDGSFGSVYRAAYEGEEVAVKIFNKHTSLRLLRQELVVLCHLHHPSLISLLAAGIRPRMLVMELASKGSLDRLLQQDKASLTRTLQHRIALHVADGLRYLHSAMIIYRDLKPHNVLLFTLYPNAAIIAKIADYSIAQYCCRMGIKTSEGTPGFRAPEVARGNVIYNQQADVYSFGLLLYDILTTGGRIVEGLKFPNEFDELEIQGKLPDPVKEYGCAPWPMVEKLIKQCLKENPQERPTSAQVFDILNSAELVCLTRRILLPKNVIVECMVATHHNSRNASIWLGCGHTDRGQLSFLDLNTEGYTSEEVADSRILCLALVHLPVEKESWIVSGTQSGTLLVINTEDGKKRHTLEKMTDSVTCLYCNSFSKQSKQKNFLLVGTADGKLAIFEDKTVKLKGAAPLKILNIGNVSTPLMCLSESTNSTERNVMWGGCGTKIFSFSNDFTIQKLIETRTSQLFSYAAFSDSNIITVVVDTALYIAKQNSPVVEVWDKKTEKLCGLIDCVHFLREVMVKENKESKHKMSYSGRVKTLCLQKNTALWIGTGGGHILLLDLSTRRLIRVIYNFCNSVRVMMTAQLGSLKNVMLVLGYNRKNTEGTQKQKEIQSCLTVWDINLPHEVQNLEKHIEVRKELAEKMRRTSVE
Consider `CC1C(C(=O)Nc2cc3cc(C4CCN(C5(C)COCC5O)CC4)c(Cl)cc3cn2)C12CCOCC2` (single isomer, unassigned) [Ex-10.7, N-(7-chloro-6-(1-(4-hydroxy-3-methyltetrahydrofuran-3-yl)piperidin-4-yl)isoquinolin-3-yl)-2-methyl-6-oxaspiro[2.5]octane-1-carboxamide], for which the IC50 is 44.7 nM.
For the compound `CC1C(C(=O)Nc2cc3cc(C4CCN(C5(C)COCC5O)CC4)c(Cl)cc3cn2)C12CCOCC2` (single isomer, unassigned) [Ex-10.8, N-(7-chloro-6-(1-(4-hydroxy-3-methyltetrahydrofuran-3-yl)piperidin-4-yl)isoquinolin-3-yl)-2-methyl-6-oxaspiro[2.5]octane-1-carboxamide], the IC50 was 145 nM.
With `CC1(N2CCC(c3cc4cc(NC(=O)C5CC5C(F)F)ncc4cc3Cl)CC2)COCC1O` (single isomer, unassigned) [Ex-10.9, N-(7-chloro-6-(1-(4-hydroxy-3-methyltetrahydrofuran-3-yl)piperidin-4-yl)isoquinolin-3-yl)-2-(difluoromethyl)cyclopropane-1-carboxamide] the figure was 7.24 nM; with `CC1(N2CCC(c3cc4cc(NC(=O)C5CC5C(F)F)ncc4cc3Cl)CC2)COCC1O` (single isomer, unassigned) [Ex-10.10, N-(7-chloro-6-(1-(4-hydroxy-3-methyltetrahydrofuran-3-yl)piperidin-4-yl)isoquinolin-3-yl)-2-(difluoromethyl)cyclopropane-1-carboxamide], 15.5 nM; with `CCC1C(C(=O)Nc2cc3cc(C4CCC(N5CC(C)(F)C5)CC4)c(Cl)cc3cn2)C1c1cnn(C)c1` (single isomer, unassigned) [Ex-11.1, (1R,2R,3R) or (1R,2S,3R) or (1S,2R,3S) or (1S,2S,3S)-N-(7-chloro-6-((cis or trans)-4-(3-fluoro-3-methylazetidin-1-yl)cyclohexyl)isoquinolin-3-yl)-2-ethyl-3-(1-methyl-1H-pyrazol-4-yl)cyclopropane-1-carboxamide], 0.0813 nM.
In the case of `CCC1C(C(=O)Nc2cc3cc(C4CCC(N5CC(C)(F)C5)CC4)c(Cl)cc3cn2)C1c1cnn(C)c1` (single isomer, unassigned) [Ex-11.2, (1R,2R,3R) or (1R,2S,3R) or (1S,2R,3S) or (1S,2S,3S)-N-(7-chloro-6-((cis or trans)-4-(3-fluoro-3-methylazetidin-1-yl)cyclohexyl)isoquinolin-3-yl)-2-ethyl-3-(1-methyl-1H-pyrazol-4-yl)cyclopropane-1-carboxamide], the IC50 is 9.12 nM.
With `COC1CN(C2CCC(c3cc4cc(NC(=O)C5CC56CCOCC6)ncc4cc3Cl)CC2)C1` (single isomer, unassigned) [Ex-11.3, N-(7-chloro-6-(4-(3-methoxyazetidin-1-yl)cyclohexyl)isoquinolin-3-yl)-6-oxaspiro[2.5]octane-1-carboxamide], the IC50 is 0.0813 nM.
With `COC1CN(C2CCC(c3cc4cc(NC(=O)C5CC56CCOCC6)ncc4cc3Cl)CC2)C1` (single isomer, unassigned) [Ex-11.4, N-(7-chloro-6-(4-(3-methoxyazetidin-1-yl)cyclohexyl)isoquinolin-3-yl)-6-oxaspiro[2.5]octane-1-carboxamide], the IC50 is 1.7 nM.
For `O=C(Nc1cc2cc(C3CCC(N4CC(F)C4)CC3)c(Cl)cc2cn1)C1CC12CCOCC2` (single isomer, unassigned) [Ex-11.5, N-(7-chloro-6-(4-(3-fluoroazetidin-1-yl)cyclohexyl)isoquinolin-3-yl)-6-oxaspiro[2.5]octane-1-carboxamide] the value was 186 nM; for `O=C(Nc1cc2cc(C3CCC(N4CC(F)C4)CC3)c(Cl)cc2cn1)C1CC12CCOCC2` (single isomer, unassigned) [Ex-11.6, N-(7-chloro-6-(4-(3-fluoroazetidin-1-yl)cyclohexyl)isoquinolin-3-yl)-6-oxaspiro[2.5]octane-1-carboxamide], 3.8 nM.
With `CCC1C(C(=O)Nc2cc3cc(C4CCC(N5CC(F)C5)CC4)c(Cl)cc3cn2)C1c1cnn(C)c1` (single isomer, unassigned) [Ex-11.7, N-(7-chloro-6-(4-(3-fluoroazetidin-1-yl)cyclohexyl)isoquinolin-3-yl)-2-ethyl-3-(1-methyl-1H-pyrazol-4-yl)cyclopropane-1-carboxamide] the figure was 0.282 nM; with `CCC1C(C(=O)Nc2cc3cc(C4CCC(N5CC(F)C5)CC4)c(Cl)cc3cn2)C1c1cnn(C)c1` (single isomer, unassigned) [Ex-11.8, N-(7-chloro-6-(4-(3-fluoroazetidin-1-yl)cyclohexyl)isoquinolin-3-yl)-2-ethyl-3-(1-methyl-1H-pyrazol-4-yl)cyclopropane-1-carboxamide], 0.0813 nM; with `CC1(N2CCC(c3cc4cc(NC(=O)C5CC56CCOCC6)ncc4cc3Cl)CC2)CCOCC1F` (single isomer, unassigned) [Ex-12.1, N-(7-chloro-6-(1-((3R,4R or 3S,4S)-3-fluoro-4-methyltetrahydro-2H-pyran-4-yl)piperidin-4-yl)isoquinolin-3-yl)-6-oxaspiro[2.5]octane-1-carboxamide], 41.7 nM.
With `CC1(N2CCC(c3cc4cc(NC(=O)C5CC56CCOCC6)ncc4cc3Cl)CC2)CCOCC1F` (single isomer, unassigned) [Ex-12.2, N-(7-chloro-6-(1-((3R,4R or 3S,4S)-3-fluoro-4-methyltetrahydro-2H-pyran-4-yl)piperidin-4-yl)isoquinolin-3-yl)-6-oxaspiro[2.5]octane-1-carboxamide] the figure was 6.46 nM; with `O=C(Nc1cc2cc(C3CCN(C4COCC4O)CC3)c(Cl)cc2cn1)C1CC1` (single isomer, unassigned) [Ex-12.3, N-(7-chloro-6-(1-(4-hydroxytetrahydrofuran-3-yl)piperidin-4-yl)isoquinolin-3-yl)cyclopropanecarboxamide], 1.17 nM.
Turning to `O=C(Nc1cc2cc(C3CCN(C4COCC4O)CC3)c(Cl)cc2cn1)C1CC1` (single isomer, unassigned) [Ex-12.4, N-(7-chloro-6-(1-(4-hydroxytetrahydrofuran-3-yl)piperidin-4-yl)isoquinolin-3-yl)cyclopropanecarboxamide], the IC50 is 66.1 nM.
`O=C(Nc1cc2cc(C3CCN(C4COCC4O)CC3)c(Cl)cc2cn1)C1CC1` (single isomer, unassigned) [Ex-12.5, N-(7-chloro-6-(1-(4-hydroxytetrahydrofuran-3-yl)piperidin-4-yl)isoquinolin-3-yl)cyclopropanecarboxamide]: the IC50 is 2.88 nM.
As to `Cn1cc(C(=O)Nc2cc3cc(C4CCN([C@]5(C)COC[C@@H]5O)CC4)c(Cl)cc3cn2)cn1` (single isomer, unassigned) [Ex-12.6, N-(7-chloro-6-(1-(4-hydroxy-3-methyltetrahydrofuran-3-yl)piperidin-4-yl)isoquinolin-3-yl)-1-methyl-1H-pyrazole-4-carboxamide], the IC50 is 0.776 nM.
With `Cn1cc(C(=O)Nc2cc3cc(C4CCN([C@]5(C)COC[C@@H]5O)CC4)c(Cl)cc3cn2)cn1` (single isomer, unassigned) [Ex-12.7, N-(7-chloro-6-(1-(4-hydroxy-3-methyltetrahydrofuran-3-yl)piperidin-4-yl)isoquinolin-3-yl)-1-methyl-1H-pyrazole-4-carboxamide] the figure was 21.9 nM; with `Cn1cc(C(=O)Nc2cc3cc(C4CCN([C@]5(C)COC[C@@H]5O)CC4)c(Cl)cc3cn2)cn1` (single isomer, unassigned) [Ex-12.8, N-(7-chloro-6-(1-(4-hydroxy-3-methyltetrahydrofuran-3-yl)piperidin-4-yl)isoquinolin-3-yl)-1-methyl-1H-pyrazole-4-carboxamide], 316 nM; with `Cn1cc(C(=O)Nc2cc3cc(C4CCN([C@]5(C)COC[C@@H]5O)CC4)c(Cl)cc3cn2)cn1` (single isomer, unassigned) [Ex-12.9, N-(7-chloro-6-(1-(4-hydroxy-3-methyltetrahydrofuran-3-yl)piperidin-4-yl)isoquinolin-3-yl)-1-methyl-1H-pyrazole-4-carboxamide], 141 nM.
With `Cc1cc2cnc(NC(=O)C3CC3c3ccccn3)cc2cc1C1CCN(C2(C)COCC2F)CC1` (single isomer, unassigned) [Ex-13.1, (1R,2R or 1S,2S)-N-(6-(1-((3R,4R or 3S,4S)-4-fluoro-3-methyltetrahydrofuran-3-yl)piperidin-4-yl)-7-methylisoquinolin-3-yl)-2-(pyridin-2-yl)cyclopropane-1-carboxamide], the IC50 was 2.51 nM.
`Cc1cc2cnc(NC(=O)C3CC3c3ccccn3)cc2cc1C1CCN(C2(C)COCC2F)CC1` (single isomer, unassigned) [Ex-13.2, (1R,2R or 1S,2S)-N-(6-(1-((3R,4R or 3S,4S)-4-fluoro-3-methyltetrahydrofuran-3-yl)piperidin-4-yl)-7-methylisoquinolin-3-yl)-2-(pyridin-2-yl)cyclopropane-1-carboxamide]: the IC50 was 38.9 nM.
With `Cc1cc2cnc(NC(=O)C3CC3c3ccccn3)cc2cc1C1CCN(C2(C)COCC2F)CC1` (single isomer, unassigned) [Ex-13.3, (1R,2R or 1S,2S)-N-(6-(1-((3R,4R or 3S,4S)-4-fluoro-3-methyltetrahydrofuran-3-yl)piperidin-4-yl)-7-methylisoquinolin-3-yl)-2-(pyridin-2-yl)cyclopropane-1-carboxamide] the figure was 0.501 nM; with `Cc1cc2cnc(NC(=O)C3CC3c3ccccn3)cc2cc1C1CCN(C2(C)COCC2F)CC1` (single isomer, unassigned) [Ex-13.4, (1R,2R or 1S,2S)-N-(6-(1-((3R,4R or 3S,4S)-4-fluoro-3-methyltetrahydrofuran-3-yl)piperidin-4-yl)-7-methylisoquinolin-3-yl)-2-(pyridin-2-yl)cyclopropane-1-carboxamide], 21.9 nM; with `O=C(Nc1cc2cc(C3CCN(C4COC4)CC3F)c(Cl)cc2cn1)C1CC1` (single isomer, unassigned) [Ex-14.1, N-(7-chloro-6-((3R,4R,3S,4R,3R,4S or 3S,4S)-3-fluoro-1-(oxetan-3-yl)piperidin-4-yl)isoquinolin-3-yl)cyclopropanecarboxamide], 5.89 nM.
